Test results published in paper PMC8438848 (Journal for Immunotherapy of Cancer, 2021).
Ends that are not written are not given here.

Molecular target: HLA-A03:01 (Homo sapiens, UniProt P04439)
Assay: IC50 in vitro measurement, peptide exchange assay with fluorescence anisotropy

Row | Sequence | IC50 [nM]
1 | KLILWRGLK [NCAPG2^P333L] | 202.9 ± 1.03
2 | KPILWRGLK [NCAPG2^WT] | 4490
3 | RLFLGLAIK [KIF2C^P13L] | 237.4 ± 2
4 | RLFPGLAIK [KIF2C^WT] | 146.2 ± 1.1

Molecular target: HLA-B27:05 (Homo sapiens, UniProt P01889, D138H/D201E/E176V/E204Q/G107R/H137Y/K202T/N104T/N87E/Q56L/Q94K/R106L/R155S/R180L/S101D/S121N/S48T/Y140D/Y33H/Y91C)
Assay: as above
Type: binding

Row | Sequence | IC50 [nM]
5 | GRIAFFLKY [SYTL4^S363F] | 214.7 ± 1.8
6 | GRIAFSLKY [SYTL4^WT] | 97.3 ± 2.1
